In series [1] the test system is chick retinal cells including neurons and glial cells. Kind of series: Cell viability assay using mixed culture of chick retinal neurons and glial cells (LIVE/DEAD stain). The class given is cell-based. The note with it: for percentage of dead cells in the exposure to light (mean): 2.78% in the absence of NK-5962. From the text:
Egg shells (Fukuda Breeders Co., Ltd., Okayama, Japan) were disinfected with 70% alcohol and 12-day-old chick embryos were removed from a small opening. The eyes at this embryonic stage were used because the outer segments of the retinal photoreceptor cells had not yet been developed. The eyes were enucleated and cut at the midperiphery of the globe and the anterior halves were removed together with the vitreous. The neurosensory retina at this embryonic stage could easily be peeled off from the eye cup. After peeling, retinal tissues were incubated in 0.25% trypsin, 1 mM ethylenediaminetetraacetic acid (EDTA) in Ca^2+, and Mg^2+-free Hanks’ balanced salt solution (HBSS) to disperse retinal cells. After centrifugation, the retinal cells were washed with Dulbecco’s modified Eagle’s medium (DMEM) and seeded at a concentration of 3.5 × 10^5 cell/mL in poly-L-lysine-coated wells of a 96-well multidish containing DMEM supplemented with 10% fetal bovine serum (FBS), 100 mg/L streptomycin, and 100 mg/L ampicillin.
In order to determine the types of cells, either neurons or glial cells derived from neurosensory retinal tissues, retinal cells following 2-day culture were stained for neuron-specific enolase and glial fibrillary acidic protein by immunocytochemistry. The majority of retinal cells at day 2 of the culture were neurons mixed with a small number of glial cells (Figure 2).
Retinal cells at a concentration of 3.5 × 10^5 cell/mL in 220 μL of DMEM with 10% FBS were cultured together with 20 μL of varying concentrations of NK-5962 for 2 days either under protection from light or under light from a fluorescent lamp at 230 lux for 9 h daily. The final concentrations of NK-5962 in the solution were 1.6 × 10^−5, 1.6 × 10^−6, and 1.6 × 10^−7 M. Cells were then incubated for 15 min with SYTO 10 Green fluorescent nucleic acid stain and DEAD Red nucleic acid stain (LIVE/DEAD Reduced Biohazard Viability/Cytotoxicity Kit: Molecular Probes; Thermo Fisher Scientific, Waltham, MA, USA) in HEPES-buffered saline. After being fixed with 4% glutaraldehyde in HEPES-buffered saline, live cells and dead cells were visualized with a 100 W mercury lamp as a light source under a fluorescence inverted microscope through a set of FITC and PI filters (Olympus IX71; Olympus Life Sciences, Tokyo, Japan). Images in the center of each well were captured with a CCD camera and stored in a computer. Three wells were assigned to each condition of incubation in one series of experiments and the entire procedure was repeated three times on different days to obtain nine results for each condition. Green live cells (stained with SYTO 10 Green) and orange dead cells (stained with both SYTO10 Green and DEAD RED) in the images for each well were counted and the percentage of dead cells to the total cells was analyzed statistically (Figure 2).

Series [2] is described as follows: Solubility assay in JP 1st and 2nd fluid. Format: physicochemical. The procedure: The Japanese Pharmacopeia (JP) 1st fluid (pH 1.2) and JP 2nd fluid (pH 6.8) for dissolution testing were used for solubility measurements. The solution of a test compound was prepared by diluting 10 mM NK-5962 in 2 μL DMSO stock solution with 165 μL of JP 1st or 2nd fluid and then mixed at 37 °C for 4 h by rotation at 1000 rpm. After loading the mixed solution into 96-well MultiScreen Filter Plates (product number MSHVN4510, 0.45 μm hydrophilic PVDF membrane; Millipore, Bedford, MA, USA), filtration was performed by centrifugation. The filtrates were mixed with acetonitrile and analyzed by high-performance liquid chromatography-UV detection (HPLC-UV, 254 nm) or by liquid chromatography and tandem mass spectrometry (LC-MS/MS). Solubility was calculated by comparing the peak area of the filtrate mixture with that of a 100 μM standard solution.

A short description of series [3]: Hepatic microsomal stability assay, rat. Format: in vitro ADME. The method, then: The disappearance of the parent compound over time was measured by using the amount of drug at time zero as a reference. After 5 min of preincubation, 1 mM NADPH (final concentration, the same applies to the following) was added to a mixture containing 1 μM of the test compound, 0.2 mg/mL of rat or human liver microsomes (Sekisui XenoTech, LLC, Kansas City, KS), 1 mM EDTA, and 100 mM phosphate buffer (pH 7.4) and then incubated at 37 °C for 30 min by rotation at 60 rpm. An aliquot of 50 μL of the incubation mixture was sampled and added to 250 μL of chilled acetonitrile/internal standard (IS). After the centrifugation for 15 min at 3150× g at 4 °C, the supernatants were analyzed by LC-MS/MS. Hepatic microsomal stability (mL/min/kg, CLint) was calculated according to the previous report and 44.8 or 48.8 mg microsomal protein/g liver and 40.0 or 25.7 g liver/kg body weight were used as scaling factors for the rat or human, respectively.

Series [4] can be described thus: Unbound fraction by equilibrium dialysis, rat plasma. Format: in vitro ADME. The note with it: 1 μM, equilibrium dialysis 37 °C 4 h. The method, then:
An equilibrium dialysis apparatus, Rapid Equilibrium Dialysis (RED) Device Single-Use Plate with Inserts, 8K MWCO (ThermoFisher Scientific, Waltham, MA, USA), was used to determine the unbound fraction for each compound in human plasma, rat plasma, and medium containing 10% fetal bovine serum (FBS). Plasma or medium was mixed with the test compound (1 μM) and 200 μL aliquots were loaded into the apparatus and dialyzed versus 350 μL of 100 mM phosphate buffer (pH 7.4) at 37 °C for 4 h by rotation at 1000 rpm. The unbound fraction was calculated as the ratio of receiver side (buffer) to donor side (plasma) concentrations.
In general terms: In equilibrium dialysis only unbound substance equilibrates across the membrane.

A short description of another series: Cytotoxicity test. The class given is cell-based.
The nature of series [5]: Repeated-dose systemic toxicity test. The note with it: in vivo.
Series [6] deals with chick retinal cells including neurons and glial cells. The arrangement: method as in PMID 18414992. The note with it: cited from earlier work; for The Percentage of Dead Cells in Total Cells: 2 days, per well.
Where [7] appears, read: 0.16 μM NK-5962, exposure to light.
The mark [8] stands for this setting: 1.6 μM NK-5962, exposure to light.
Setting [9] is: 16 μM NK-5962, exposure to light.

Each structure is given as a SMILES string. Where “and” joins values, the source holds several entries; their conditions need not be identical. Equal values may be shown once. Read-outs that look alike come from different tables or passages of the source.

Regarding `CCCCN(CCCC)c1ccc(C=Cc2sc3ccccc3[n+]2CC(=O)O)cc1.[Br-]` [NK-5962, 2-[2-[4-(dibutylamino)phenyl]ethenyl]-3-carboxymethylbenzothiazolium bromide], the entries for the “rate of the percentage of dead cells compared with the absence of NK-5962” value in series [1] (setting [7]), in series [1] (setting [8]) and in series [1] (setting [9]) were 105%, 68% and 42%, respectively. In addition, the “percentage of dead cells in the exposure to light (mean)” value worked out at 2.93% in series [1] (setting [7]), 1.89% in series [1] (setting [8]) and 1.17% in series [1] (setting [9]). In addition, in series [1] (Gallus gallus, corrected with non-binding ratio 0.34 in 10% FBS, read-out: IC50 based on free form of NK-5962), the IC50 amounted to 1700 nM. Also, the solubility at 4 h in series [2] (JP 1st fluid pH 1.2, 37 °C, read-out: Solubility JP1 (pH 1.2)) is 79 µM; in series [2] (JP 2nd fluid pH 6.8, 37 °C, read-out: Solubility JP2 (pH 6.8)) it was 0.2 µM. Further, the “Solubility JP2 (pH 6.8)” value in series [2] (JP 2nd fluid pH 6.8, 37 °C, 4 h) was “low”. For the same molecule, the “Microsome Metabolic Stability Rat” value in series [3] (1 μM, 0.2 mg/mL microsomes, 1 mM NADPH, 30 min) was 151.9 µL/min/mg. Further, the “metabolic stability (in words)” value in series [3] (rat liver microsomes) is “moderate metabolic stability”. Besides, the “stability in the absence of the coenzyme NADPH” value in series [3] (rat liver microsomes, without NADPH) is recorded as “stable”. Moreover, the CLint scaled at 1 μM in series [3] (rat, liver microsomes, pH 7.4, 1 μM, 0.2 mg/mL microsomes, 1 mM NADPH, 30 min, read-out: Microsome Metabolic Stability Rat (CLint)) stood at 272 mL/min/kg. Besides, the “Protein-Binding (Non-Binding Ratio) Rat Plasma” value in series [4] came out at 0.022. The “toxicity in the cytotoxicity test” value in “Cytotoxicity test” is “not toxic”. For the same molecule, the “repeated-dose systemic toxicity test” value in series [5] is on record as “not toxic”. Besides, the “percentage of dead cells, dependence on concentration” value in series [6] (2 days culture, dark or light condition, P = 0.0183 two-factor ANOVA) is “significantly smaller at higher concentrations”. The “The Percentage of Dead Cells in Total Cells” value was 1.3% and 0% and 0.5% and 0.3% and 1.9% and 3.2% and 3.0% in series [6] (NK-5962 1.6 × 10^−5 M, light exposure yes (230 lux 9 h daily)); 2.5% and 0.4% and 1.3% and 2.4% and 0.8% and 1.7% and 1.9% and 1.4% in series [6] (NK-5962 1.6 × 10^−6 M, light exposure no); 5.1% and 2.0% and 0.3% and 1.2% and 0% and 2.3% and 2.2% and 1.3% in series [6] (NK-5962 1.6 × 10^−7 M, light exposure no).

The term IC50 denotes the point on the concentration scale where inhibition reaches its midpoint. The solubility is the concentration that dissolves in the medium under given conditions.

These data come from PMC8235661, “Photoelectric Dye, NK-5962, as a Potential Drug for Preventing Retinal Neurons from Apoptosis: Pharmacokinetic Studies Based on Review of the Evidence” (Life, 2021).
